Assays:
[1] = Intrinsic clearance in human liver microsomes; format: in vitro ADME; conditions: for CLint scaled at 0.75 h, 1 µM: pH 7.4, human liver microsomes; for CLhep, human: predicted hepatic clearance from human microsomes
[2] = Rat IV/PO pharmacokinetics; format: in vivo, Sprague-Dawley rat; conditions: plasma, IV 1 mg/kg; for MRT / clearance / half-life / Vd: male Sprague-Dawley rats (n = 2); for clearance: read-out: CLp; for half-life: read-out: Elim. t 1/2 (converted); for Vd: read-out: V ss
Experimental: (1700 rcf, 5 minutes, 4 °C) to obtain plasma sample. […]
All brain and plasma samples were stored at -80 °C until analysis by LC-MS/MS.
Male Sprague-Dawley rats were used for discrete pharmacokinetic studies. Compounds in ethanol:
PEG400: saline (1:4:5 v/v/v) were administered intra-venously in two rats at 1 mg/kg (IV PK). Two rats were also gavaged at 10 mg/kg with compounds in 10% Tween 80 in water (PO PK). Blood samples were collected from all […] at […] different time points post-dose (0.25, 0.50, 1.0, 2.0, 4.0, 7.0 and 24 hr) and plasma was prepared as described above. The concentration of compounds in plasma was quantified by LC/MS/MS as described below.
The IV PK experiment was used to determine clearance, Volume of distribution and half-life. The PO experiments were used to determine exposure and oral bioavailability. PK parameters were calculated using Phoenix WinNonlin software (version 8.1).
Samples preparation for bioanalysis
Plasma samples from the in-life phase of the study were thawed at ambient temperature (benchtop), and then aliquots (20 µL per sample) were transferred to a 96-shallow-well (V-bottom) plate. Matrix-matched quality control (QC) samples and standard curves of VU6031545 and VU6024945 (1 mg/mL DMSO stock solution) were prepared in blank rat plasma (K2EDTA-treated) or blank brain homogenate via serial dilution and transferred (20 µL each) to the plate along with multiple blank plasma and brain homogenate samples. Acetonitrile (120 µL) containing IS (10 nM carbamazepine) was added to each well of the plate to precipitate protein. The plate was then centrifuged (4000 rcf, 5 minutes, ambient temperature), and resulting supernatants (60 µL each) were transferred to a new 96-shallow-well (V-bottom) plate containing an equal volume (60 µL per well) of water (Milli-Q purified). The plate was then sealed in preparation for LC-MS/MS analysis. […]

CYP1A2 = target: T1, CYP1A2 (Homo sapiens, UniProt P05177); experiment: Cytochrome P450 inhibition using human liver microsomes, CYP1A2; format: in vitro ADME; conditions: read-out: CYP 450 IC50, 1A2
T1 construct: from tissue; host or cells: human liver microsomes
T1 sequence (P05177 1-516): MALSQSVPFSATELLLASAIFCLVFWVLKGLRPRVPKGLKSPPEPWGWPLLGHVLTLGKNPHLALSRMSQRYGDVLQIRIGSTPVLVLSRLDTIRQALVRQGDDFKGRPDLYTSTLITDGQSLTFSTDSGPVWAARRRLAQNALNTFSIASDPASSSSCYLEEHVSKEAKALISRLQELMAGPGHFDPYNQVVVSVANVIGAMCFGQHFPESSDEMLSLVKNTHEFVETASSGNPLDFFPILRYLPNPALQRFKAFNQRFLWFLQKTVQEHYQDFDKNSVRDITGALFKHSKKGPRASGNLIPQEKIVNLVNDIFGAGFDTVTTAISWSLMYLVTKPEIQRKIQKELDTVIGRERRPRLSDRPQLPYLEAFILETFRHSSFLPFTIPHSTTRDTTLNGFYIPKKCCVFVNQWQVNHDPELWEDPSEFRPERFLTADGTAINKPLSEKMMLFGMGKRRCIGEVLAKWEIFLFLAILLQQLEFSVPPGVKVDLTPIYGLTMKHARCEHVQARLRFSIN
Experimental: (§1) Cytochrome P450 inhibition using Liver Microsomes.
(§2) The ability of compounds to inhibit cytochrome P450s (CYPs) was tested using human liver microsomes and a cocktail of substrates specific for CYP1A2, 2C9, 2D6 and 3A4. Compounds were incubated at 37C in presence of human liver microsomes (0.1 mg/ml) at 30, 10, 3, 1, 0.3 and 0.1 µM. A cocktail of substrate was also added for each CYP tested: phenacetin (10 µM, CYP1A2), diclofenac (5 µM, CYP2C9), dextromethorphan (5 µM, CYP2D6) and midazolam (2 µM, CYP3A4). HLM were also incubated with the control inhibitor miconazole at 3, 1, 0.3, 0.1, 0.03 and 0.01 µM. […]
(§3) The concentrations of CYP-specific metabolites generated at the end of the reaction were quantified by mass spectrometry using standard curves for each metabolite: acetaminophen (CYP1A2), 4-hydroxydiclofenac (CYP2C9), dextrophan (CYP2D6) and 1-hydroxymidazolam (CYP3A4). A concentration response curve for each metabolite was generated and IC50s were calculated using Prism. The LC-MS/MS transitions for metabolite quantifications are as follows. […]
(§4) Prepared samples were injected (10 µL each) onto an AB Sciex Triple Quad 4500 mass spectrometer system with an Agilent 1260 Infinity II pump and autosampler. […] Quantitation of compounds was performed via AB Sciex Multiquant software using the raw analyte:IS peak area ratios. […]

CYP2D6 = target: T2, CYP2D6 (Homo sapiens, UniProt P10635); experiment: Cytochrome P450 inhibition using human liver microsomes, CYP2D6; format: in vitro ADME; conditions: read-out: CYP 450 IC50, 2D6
T2 construct: from tissue; host or cells: human liver microsomes
T2 sequence (P10635 whole entry): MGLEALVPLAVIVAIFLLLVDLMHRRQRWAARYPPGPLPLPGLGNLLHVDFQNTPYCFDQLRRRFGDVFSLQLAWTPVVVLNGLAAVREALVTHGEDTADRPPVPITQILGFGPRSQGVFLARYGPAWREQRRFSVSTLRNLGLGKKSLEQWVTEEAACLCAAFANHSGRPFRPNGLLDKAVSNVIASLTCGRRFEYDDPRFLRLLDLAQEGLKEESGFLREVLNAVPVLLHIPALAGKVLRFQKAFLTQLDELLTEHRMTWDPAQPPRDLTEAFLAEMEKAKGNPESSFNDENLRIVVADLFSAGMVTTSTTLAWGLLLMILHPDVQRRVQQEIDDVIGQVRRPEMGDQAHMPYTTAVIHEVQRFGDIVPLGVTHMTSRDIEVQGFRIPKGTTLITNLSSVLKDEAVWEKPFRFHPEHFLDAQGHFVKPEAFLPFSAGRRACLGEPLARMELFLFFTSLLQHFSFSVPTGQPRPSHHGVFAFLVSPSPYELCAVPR
Experimental: as §1, §2, §3, §4

[3] = male Sprague-Dawley rats, PO 10 mg/kg, read-out: %F (oral bioavailability)

| CLint scaled at 0.75 h, 1 µM [1] | CLhep, human [1] | MRT [2] | clearance [2] | half-life [2] | Vd [2] | bioavailability [2, 3] | IC50 (CYP1A2) | IC50 (CYP2D6) | bioavailability at 24 h [2, 3] | SMILES |
| --- | --- | --- | --- | --- | --- | --- | --- | --- | --- | --- |
| 140 mL/min/kg | 18.3 mL/min/kg | 2.45 h | 49.3 mL/min/kg | 3.42 h | 6.67 L/kg | > 100% | 1.2 µM | > 30 µM |  | Cc1csc(NC(=O)c2cc(O[C@@H]3CCOC3)c3sccc3n2)n1 [19aA] |
| 241 mL/min/kg | 19.3 mL/min/kg | 1.44 h | 31.3 mL/min/kg | 1.78 h | 2.89 L/kg | 17% | 1.3 µM | > 30 µM | 16.6% | Cc1csc(NC(=O)c2cc(O[C@@H]3CCOC3)cc(F)c2F)n1 [27cA] |

Reference: paper PMC12067350, “Discovery of Thieno[3,2‑b]pyridine-5-carboxamide and 2,3-Difluorobenzamide Negative Allosteric Modulators of Metabotropic Glutamate Receptor Subtype 5” (ACS Medicinal Chemistry Letters, 2025)
